PubChem BioAssay (NCI)
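Protocol summary: plate cells (96-well), add compound at 5 concentrations, incubate 48 h, interpolate endpoints linearly. Abbreviation: GI50, concentration required for 50% inhibition of growth. Definition used: TGI = concentration required for complete inhibition of growth.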

What was measured:
Experiment in all cases: NCI anticancer screen, dose series, 48 h
M19-MEL melanoma = system: M19-MEL melanoma
DMS 273 small cell lung = system: DMS 273 small cell lung
SNB-78 CNS = system: SNB-78 CNS
RXF-631 renal = system: RXF-631 renal

`N#CCCC(C#N)(C#N)CCC#N` was tested, and the TGI (M19-MEL melanoma) was greater than 100 µM and the TGI (DMS 273 small cell lung) was greater than 100 µM.
`CCOC(=O)/C(C1=NCCN1C)=C(\O)c1ccccc1` was tested, and the TGI (SNB-78 CNS) was greater than 100 µM and the TGI (M19-MEL melanoma) was greater than 100 µM.
`c1cc2c(cc1C1OCC3C(c4ccc5c(c4)OCO5)OCC13)OCO2` (configuration not stated) gave a TGI (SNB-78 CNS) greater than 100 µM and a TGI (M19-MEL melanoma) greater than 100 µM.
Work on `C#CN1C(=O)c2c(c(-c3ccccc3)c(-c3ccc(Oc4ccc(-c5c(-c6ccccc6)c6c(c(-c7ccccc7)c5-c5ccccc5)C(=O)N(C#C)C6=O)cc4)cc3)c(-c3ccccc3)c2-c2ccccc2)C1=O` yielded a TGI (M19-MEL melanoma) greater than 100 µM and a TGI (DMS 273 small cell lung) greater than 100 µM.
With `O=C(O)C12C3CCC(C3)C1(C(=O)O)C1CCC2C1` (configuration not stated) the TGI (SNB-78 CNS) was greater than 100 µM, the TGI (M19-MEL melanoma) was greater than 100 µM and the TGI (RXF-631 renal) was greater than 100 µM. The TGI (DMS 273 small cell lung) was greater than 100 µM.
`O=C(c1ccccc1)n1cc(/C=C/[N+](=O)[O-])c2ccccc21` gave a TGI (SNB-78 CNS) of 79.9 µM, a TGI (M19-MEL melanoma) of 38.9 µM and a TGI (RXF-631 renal) of 48.2 µM. It also gave a TGI (DMS 273 small cell lung) of 55.1 µM.
For `Cc1c(-c2coc(-c3ccc([N+](=O)[O-])cc3)n2)c(=O)n(-c2ccccc2)n1C`, the TGI (SNB-78 CNS) was greater than 100 µM, the TGI (M19-MEL melanoma) was greater than 100 µM and the TGI (DMS 273 small cell lung) was greater than 100 µM.
Molecule `COc1ccc(S(=O)(=O)N/N=C(\C)CN2C(=O)c3ccccc3C2=O)cc1OC` has a TGI (SNB-78 CNS) greater than 100 µM, a TGI (M19-MEL melanoma) greater than 100 µM and a TGI (DMS 273 small cell lung) greater than 100 µM.
In the case of `O=c1[nH]c(=O)n([C@H]2C[C@@H](CO)[C@@H](O)C2)cc1I`, the TGI (SNB-78 CNS) is reported as greater than 100 µM, the TGI (M19-MEL melanoma) is reported as greater than 100 µM and the TGI (DMS 273 small cell lung) is reported as greater than 100 µM.
`COP12(OC)NC(=O)OC1(C(F)(F)F)c1ccccc1O2` (configuration not stated) gave a TGI (SNB-78 CNS) greater than 100 µM, a TGI (M19-MEL melanoma) greater than 100 µM and a TGI (DMS 273 small cell lung) greater than 100 µM.
For `COc1cc(C2C(C(=O)NCc3ccccc3)=C(C)NC(C)=C2C(=O)NCc2ccccc2)ccc1O`, the TGI (SNB-78 CNS) was greater than 100 µM, the TGI (M19-MEL melanoma) was greater than 100 µM and the TGI (RXF-631 renal) was greater than 100 µM. The TGI (DMS 273 small cell lung) was greater than 100 µM.
With `O=C1CCC(=O)c2ccccc2N1` the TGI (M19-MEL melanoma) was greater than 100 µM and the TGI (DMS 273 small cell lung) was greater than 100 µM.
`CN1CCS(=O)(=O)NC(Cc2ccccc2)C(=O)N2CCCC2C1=O` (configuration not stated) gave a TGI (SNB-78 CNS) greater than 100 µM, a TGI (M19-MEL melanoma) greater than 100 µM and a TGI (DMS 273 small cell lung) greater than 100 µM.
`O=C1C(Cl)C(c2ccc(O)cc2)N1n1cnc2ccccc2c1=O` (configuration not stated) gave a TGI (SNB-78 CNS) greater than 100 µM, a TGI (M19-MEL melanoma) of 46.9 µM and a TGI (DMS 273 small cell lung) greater than 100 µM.
`O=c1cccccc1[O-].O=c1cccccc1[O-].O=c1cccccc1[O-].[Nd+3]` showed a GI50 (SNB-78 CNS) of 20.6 µM, a TGI (SNB-78 CNS) greater than 100 µM and a GI50 (DMS 273 small cell lung) of 14.3 µM. It also gave a TGI (DMS 273 small cell lung) greater than 100 µM.
Molecule `CN(C)CC1(Cc2ccccc2)CC/C(=C\c2ccccc2)C1=O` (configuration not stated) has a TGI (SNB-78 CNS) greater than 100 µM, a TGI (M19-MEL melanoma) of 64.6 µM and a TGI (RXF-631 renal) of 83.7 µM. It also gave a TGI (DMS 273 small cell lung) greater than 100 µM.
In the case of `NNC(=O)/C(NC(=O)c1ccccc1)=C(\N)c1cccc([N+](=O)[O-])c1`, the TGI (SNB-78 CNS) is reported as greater than 100 µM, the TGI (M19-MEL melanoma) is reported as greater than 100 µM and the TGI (RXF-631 renal) is reported as greater than 100 µM. For the same molecule, the TGI (DMS 273 small cell lung) was greater than 100 µM.
With `COC(=O)C(=O)C(C(=O)OC)C(=O)C(=O)Nc1cc(Cl)c(C)cc1S(=O)(=O)O` (configuration not stated) the TGI (SNB-78 CNS) was greater than 100 µM, the TGI (M19-MEL melanoma) was greater than 100 µM and the TGI (DMS 273 small cell lung) was greater than 100 µM.
`c1ccc2cc(C3NCCc4[nH]cnc43)ccc2c1` (configuration not stated) gave a TGI (SNB-78 CNS) greater than 100 µM, a TGI (M19-MEL melanoma) greater than 100 µM and a TGI (DMS 273 small cell lung) greater than 100 µM.
Molecule `CN1CCCS/C1=C1/SC(=S)N(c2ccccc2)C1=O` has a TGI (SNB-78 CNS) greater than 100 µM, a TGI (M19-MEL melanoma) greater than 100 µM and a TGI (RXF-631 renal) greater than 100 µM. The TGI (DMS 273 small cell lung) was greater than 100 µM.
Work on `N#Cc1ccc(C2OCC3CC=CCC3CO2)cc1` (configuration not stated) yielded a TGI (SNB-78 CNS) greater than 100 µM, a TGI (M19-MEL melanoma) greater than 100 µM and a TGI (RXF-631 renal) greater than 100 µM.
For `COc1cc2ccnc(C#N)c2cc1OCc1ccccc1`, the TGI (SNB-78 CNS) was greater than 100 µM.
For `O=C1c2ccccc2C(=O)c2c1oc1cc(O)c(Cl)cc21`, the TGI (SNB-78 CNS) was 19.5 µM, the TGI (M19-MEL melanoma) was 0.445 µM and the TGI (DMS 273 small cell lung) was 10.8 µM.
In the case of `COc1ccc(OC(=O)N2C/C(=C\c3ccccc3)C(=O)/C(=C/c3ccccc3)C2)cc1`, the TGI (SNB-78 CNS) is reported as 27.3 µM, the TGI (M19-MEL melanoma) is reported as 2.9 µM and the TGI (DMS 273 small cell lung) is reported as 6.28 µM.
